Laboratory results from US11352350B2, “IRAK degraders and uses thereof” (Kymera Therapeutics, Inc., priority 2018, dated 2022).
Like-named read-outs stand apart in the source and are kept apart here.

Tests used:
BALB/c mice = assay: MSU crystal-induced inflammatory cell infiltration into six-day air pouch (gout model); type: in vivo, mouse; conditions: orally dosed; FIG. 15
Experimental: Animals: BALB/c mice, male, 5-6 weeks, weighing approximately 19-23 g were used. Animals were housed and maintained according to IACUC protocols.
Air Pouch: Each mouse was anesthetized and injected with 6 mL of sterile air subcutaneously (SC) at the nape of the neck and the injection site was sealed with flexible colloidon to create an air pouch. Three days later, the mice were injected with 3 mL of sterile air SC at the same site and the injection site was sealed with flexible colloidon.
Preparation of MSU Crystals: 10 g uric acid (Sigma, Cat. U2625, lot BCBM5312V) was heated to 60° C. in 2 L purified water, containing 5.8 mL 10 N NaOH. The pH of the heated mixture was adjusted to 8.9, yielding a clear solution which was stored overnight at 4-8° C. to allow MSU crystals to form and precipitate. The MSU crystals were washed three times with 1 L purified water and stored at 37° C. to dry.
Formulation of Degrader: 0.5% CMC/0.25% Tween-80 was prepared by dissolving 0.5 g carboxymethylcellulose (Sigma, Cat. C4888, lot 101K0185) in 100 mL de-ionized water followed by the addition of 0.25 mL Tween-80 (Sigma, Cat. P1754, lot 073K0064). […]
Termination, Cell Collection and Data: Four hours after MSU/saline injection, the mice were anesthetized and humanely exsanguinated. […] The air pouch was gently massaged, the contents immediately removed, and the exudate volume recorded. […]

TMD8 tumor cells = assay: TMD8 large B lymphoma xenograft model in C.B. 17 SCID mice; type: in vivo, mouse; conditions: FIG. 6 A-C
Experimental: Cell Culture: The OCI-LY10 or TMD8 tumor cells were maintained as suspension in RPMI1640 medium supplemented with 10% fetal bovine serum, 100 U/mL penicillin and 100 μg/mL streptomycin at 37° C. in an atmosphere of 5% CO2 in air. The tumor cells were routinely subcultured twice weekly by trypsin-EDTA treatment. The cells growing in an exponential growth phase were harvested and counted for tumor inoculation.
Animals: C.B. 17 SCID, female, 6-8 weeks, weighing approximately 16-18 g were used. Animals were housed and maintained according to IACUC protocols. […]
Assignment to Groups: Before commencement of treatment, all animals were weighed and the tumor volumes were measured. […]
Observation: After tumor inoculation, the animals were checked daily for morbidity and mortality. […] Mortality and observed clinical signs were recorded for individual animals in detail.
Data Collection: Tumor volumes were measured in two dimensions using a caliper, and the volumes were expressed in mm^3 using the formula: “V=(L×W×W)/2, where V is tumor volume, L is tumor length (the longest tumor dimension) and W is tumor width (the longest tumor dimension perpendicular to L).
At termination: At pre-determined time points based on study design, animals were humanely sacrificed by CO2. […] Compound was determined in tumor and plasma using LC/MS with calibrated standards.

IRAK4 = IRAK4 (Homo sapiens (Human), UniProt Q9NWZ3); assay: IRAK4 WB degradation (DC50); type: cell-based
IKAROS = IKAROS (Homo sapiens (Human), UniProt Q13422+Q96SW2); assay: IKAROS degradation in OCI-LY10 (DC50); type: cell-based
[1] = Oral exposure / bioavailability of I-75; type: in vivo, rat, dog, and monkey; conditions: FIG. 11
OCI-LY19 = OCI-LY19 viability, CTG; type: cell-based; conditions: Homo sapiens, OCI-LY19
[2] = system: cytokines induced by TLR stimuli; assay: Human whole blood cytokine release assays; type: cell-based; conditions: compared with IRAK4 inhibition with PF-06550833, FIG. 16
Experimental: Fresh human whole blood was collected in Na Heparin tubes and received from […] same day as collection. 200 uL of whole blood was aliquoted per well into a 96 well plate. Whole blood was pre-incubated with compounds overnight at 37° C., 5% CO2. Following compound incubation, samples were stimulated with […] (invivogen #tlrl-r848), LPS 10 ng/mL (Sigma #L2637) or IL-1β 25 ng/mL (R&D systems 201-LB) and incubated for an additional 5 hours. At the end of the assay, blood was spun down for 15 min at 4° C. and plasma was collected and immediately stored at −80° C. Cytokine and chemokine levels were measured by custom ordered U-plex MSD panels (panel 1: IFNy, IL-10, IL-1β, IL-6, IL-8, TNFα) and (panel 2: IP-10, MIP1-α, MIP-1β, IL-12/IL-23p40, GROα).

Sequence of IKAROS (Q13422 whole entry): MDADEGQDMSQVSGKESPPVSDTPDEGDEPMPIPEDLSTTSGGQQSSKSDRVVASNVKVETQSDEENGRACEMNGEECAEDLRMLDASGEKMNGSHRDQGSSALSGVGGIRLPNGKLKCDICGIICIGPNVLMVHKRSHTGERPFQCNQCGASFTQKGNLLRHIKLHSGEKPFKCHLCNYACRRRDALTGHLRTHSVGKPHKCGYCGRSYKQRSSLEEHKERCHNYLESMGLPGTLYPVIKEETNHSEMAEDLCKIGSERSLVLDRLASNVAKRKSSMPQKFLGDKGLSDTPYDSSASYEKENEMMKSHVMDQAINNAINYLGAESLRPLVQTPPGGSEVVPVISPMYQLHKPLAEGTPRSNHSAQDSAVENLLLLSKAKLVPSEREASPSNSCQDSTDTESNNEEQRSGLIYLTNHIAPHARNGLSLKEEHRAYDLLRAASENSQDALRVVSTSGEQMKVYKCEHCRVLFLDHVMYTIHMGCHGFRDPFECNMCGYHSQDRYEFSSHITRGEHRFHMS
Sequence of IKAROS (Q96SW2 whole entry): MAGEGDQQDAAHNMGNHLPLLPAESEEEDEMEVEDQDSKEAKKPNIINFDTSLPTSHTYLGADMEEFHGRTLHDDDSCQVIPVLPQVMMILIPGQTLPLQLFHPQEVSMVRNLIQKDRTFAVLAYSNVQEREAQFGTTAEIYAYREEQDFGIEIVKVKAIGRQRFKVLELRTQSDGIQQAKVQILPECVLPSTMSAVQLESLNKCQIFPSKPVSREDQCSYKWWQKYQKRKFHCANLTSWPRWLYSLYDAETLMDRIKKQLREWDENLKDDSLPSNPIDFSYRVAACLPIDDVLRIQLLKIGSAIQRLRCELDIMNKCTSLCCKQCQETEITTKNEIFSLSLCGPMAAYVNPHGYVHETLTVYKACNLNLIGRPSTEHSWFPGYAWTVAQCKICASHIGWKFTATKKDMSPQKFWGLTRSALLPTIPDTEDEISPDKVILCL
Sequence of IKAROS (Q16531 whole entry partner): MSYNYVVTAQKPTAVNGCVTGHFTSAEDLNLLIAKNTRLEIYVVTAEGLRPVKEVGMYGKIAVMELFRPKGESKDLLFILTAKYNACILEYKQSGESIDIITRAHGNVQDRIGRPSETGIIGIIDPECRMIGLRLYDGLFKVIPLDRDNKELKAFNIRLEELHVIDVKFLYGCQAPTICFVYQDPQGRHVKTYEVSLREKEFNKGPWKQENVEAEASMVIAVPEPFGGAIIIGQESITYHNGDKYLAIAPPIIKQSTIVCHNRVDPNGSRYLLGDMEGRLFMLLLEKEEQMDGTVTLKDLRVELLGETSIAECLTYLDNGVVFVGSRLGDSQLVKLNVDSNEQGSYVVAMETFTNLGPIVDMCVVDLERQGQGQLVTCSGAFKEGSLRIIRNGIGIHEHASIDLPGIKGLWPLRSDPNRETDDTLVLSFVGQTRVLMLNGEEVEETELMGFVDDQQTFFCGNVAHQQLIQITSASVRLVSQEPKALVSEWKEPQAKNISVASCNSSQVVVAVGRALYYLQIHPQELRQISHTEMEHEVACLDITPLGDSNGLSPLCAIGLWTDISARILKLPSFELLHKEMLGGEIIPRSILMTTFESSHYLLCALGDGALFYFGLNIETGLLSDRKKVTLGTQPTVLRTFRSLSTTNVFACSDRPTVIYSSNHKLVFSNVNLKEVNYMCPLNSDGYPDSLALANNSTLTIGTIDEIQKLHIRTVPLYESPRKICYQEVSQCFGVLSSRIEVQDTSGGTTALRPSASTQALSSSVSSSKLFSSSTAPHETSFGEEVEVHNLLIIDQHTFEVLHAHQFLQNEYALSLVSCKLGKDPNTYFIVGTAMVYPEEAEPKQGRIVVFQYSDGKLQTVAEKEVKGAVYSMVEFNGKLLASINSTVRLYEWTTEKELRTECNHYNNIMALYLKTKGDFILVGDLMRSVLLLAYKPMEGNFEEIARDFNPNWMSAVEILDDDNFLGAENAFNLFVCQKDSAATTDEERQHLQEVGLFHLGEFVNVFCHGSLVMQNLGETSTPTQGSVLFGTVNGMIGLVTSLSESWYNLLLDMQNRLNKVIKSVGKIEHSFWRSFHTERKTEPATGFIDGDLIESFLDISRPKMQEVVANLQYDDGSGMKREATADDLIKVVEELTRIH
Sequence of IRAK4 (Q9NWZ3 whole entry): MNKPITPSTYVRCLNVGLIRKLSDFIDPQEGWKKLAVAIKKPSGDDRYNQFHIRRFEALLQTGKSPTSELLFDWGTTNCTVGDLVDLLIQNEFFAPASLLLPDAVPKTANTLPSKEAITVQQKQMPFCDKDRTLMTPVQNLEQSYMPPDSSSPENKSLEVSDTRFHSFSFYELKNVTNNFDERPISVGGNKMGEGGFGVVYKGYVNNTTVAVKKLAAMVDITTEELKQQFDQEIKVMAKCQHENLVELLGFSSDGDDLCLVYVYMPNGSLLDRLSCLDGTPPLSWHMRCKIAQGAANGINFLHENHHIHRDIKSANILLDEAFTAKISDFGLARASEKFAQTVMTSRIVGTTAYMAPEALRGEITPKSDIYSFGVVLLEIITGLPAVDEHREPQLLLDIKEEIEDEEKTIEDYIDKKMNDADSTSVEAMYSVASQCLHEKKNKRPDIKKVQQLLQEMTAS

SMILES	IL-1β in plasma (BALB/c mice)	activity in TMD8 xenograft model (TMD8 tumor cells)	DC50 (IRAK4)	DC50 (IKAROS)	oral bioavailability ([1]; rat, dog, and monkey)	oral exposure in plasma ([1]; up to 300 mg/kg)	IC50 (OCI-LY19; MYD88 WT Lines, read-out: OCI-LY19 Viability, CTG IC50)	IC50 (OCI-LY19; MYD88 WT, read-out: OCI-LY19 CTG IC50)	range of cytokines inhibited, induced by different TLR stimuli [2]
CN(CCCOCCCc1cccc2c1n(C)c(=O)n2C1CCC(=O)NC1=O)C[C@H]1CC[C@H](n2cc(NC(=O)c3coc(-c4ccnc(NCC5CC5)c4)n3)c(C(F)F)n2)CC1 (mixture of isomers) [I-30, 2-[2-(Cyclopropylmethylamino)-4-pyridyl]-N-[3-(difluoromethyl)-1-[4-[[3-[3-[1-(2,6-dioxo-3-piperidyl)-3-methyl-2-oxo-benzimidazol-4-yl]propoxy]propyl-methyl-amino]methyl]cyclohexyl]pyrazol-4-yl] oxazole-4-carboxamide]	dose-dependent decrease in IL-1β	active	–	–	–	–	–	–	–
CN(C[C@H]1CC[C@H](n2cc(NC(=O)c3coc(-c4ccnc(NCC5CC5)c4)n3)c(C(F)F)n2)CC1)C1CCN(Cc2cccc3c2n(C)c(=O)n3C2CCC(=O)NC2=O)CC1 (stereo partly drawn) [I-75, 2-(2-((cyclopropylmethyl)amino)pyridin-4-yl)-N-(3-(difluoromethyl)-1-((1r,4r)-4-(((1-((1-(2,6-dioxopiperidin-3-yl)-3-methyl-2-oxo-2,3-dihydro-1H-benzo[d]imidazol-4-yl)methyl)piperidin-4-yl)(methyl)amino)methyl)cyclohexyl)-1H-pyrazol-4-yl)oxazole-4-carboxamide]	–	–	23 nM	> 100 nM	oral bioavailable	dose proportional oral exposure in plasma	480 nM	480 nM	inhibits a broader range of cytokines
